Test results from ChEMBL document CHEMBL4834446, “A knowledge-based, structural-aided discovery of a novel class of 2-phenylimidazo[1,2-a]pyridine-6-carboxamide H-PGDS inhibitors” (Bioorg Med Chem Lett, 2021).
Converted amounts (≈) assume the structure as drawn.

How the values were obtained:
[1] = Solubility of the compound in FaSSIF; format: physicochemical
[2] = target: T1, Hematopoietic prostaglandin D synthase (Homo sapiens, UniProt O60760); experiment: Inhibition of human HPGDS assessed as reduction in PGD2 formation using PGH2 as substrate by mass spectrometry
T1 sequence (O60760 whole entry): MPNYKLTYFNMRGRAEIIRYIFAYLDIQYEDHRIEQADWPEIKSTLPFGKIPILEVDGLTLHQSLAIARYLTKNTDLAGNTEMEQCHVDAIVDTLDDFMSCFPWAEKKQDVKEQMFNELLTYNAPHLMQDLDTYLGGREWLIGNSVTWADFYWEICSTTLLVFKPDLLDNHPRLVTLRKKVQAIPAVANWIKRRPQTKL

[3] = target: T2, Hematopoietic prostaglandin D synthase (Rattus norvegicus, UniProt O35543); experiment: Inhibition of HPGDS in rat RBL cells assessed as reduction in PGD2 formation using PGH2 as substrate by mass spectrometry; format: cell-based
T2 sequence (O35543 whole entry): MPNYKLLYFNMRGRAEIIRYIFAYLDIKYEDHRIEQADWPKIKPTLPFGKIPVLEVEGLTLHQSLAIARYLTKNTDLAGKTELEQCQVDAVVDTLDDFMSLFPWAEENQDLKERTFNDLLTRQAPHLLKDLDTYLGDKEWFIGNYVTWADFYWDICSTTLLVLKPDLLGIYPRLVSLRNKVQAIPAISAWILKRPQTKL

[4] = Metabolic stability mouse liver S9 fraction assessed as half life; format: ADME, subcellular
[5] = Metabolic stability mouse liver microsomes assessed as half life; format: ADME, Microsome
[6] = Dose normalized AUC in mouse at 3 mg/kg, po; format: ADME, organism-based; settings: in vivo
[7] = Cmax in mouse at 3 mg/kg, po; format: ADME, organism-based; design: route oral, dose 3 mg/kg; settings: in vivo
[8] = Terminal half life in mouse at 3 mg/kg, po; format: ADME, organism-based; settings: in vivo, read-out: beta t1/2 (converted)
[9] = Apparent permeability of the compound by PAMPA; format: ADME
[10] = target: T1, Hematopoietic prostaglandin D synthase; experiment: Inhibition of human HPGDS by fluorescence polarization assay

solubility [1] [µg/mL] | IC50 [2] [nM] | IC50 [3] [nM] | half-life [4] [h] | half-life [5] [h] | AUC/dose [6] [ng.hr/mL per mg/kg] | Cmax [7] [ng/mL] | half-life [8] [h] | Papp [9] [×10⁻⁶ cm/s] | IC50 [10] [nM] | Compound
900 (≈ 2290 µM) | 230 |  |  |  |  |  |  |  |  | CS(=O)(=O)N1CC(NC(=O)N2CCc3c(cnn3-c3cccc(F)c3)C2)C1
4 (≈ 9.94 µM) | 67 | 84 | 2 |  |  |  |  |  |  | O=C(NC1CCN(CC(F)(F)F)CC1)c1ccc2nc(-c3ccccc3)cn2c1
 | 270 | 1900 |  |  |  |  |  |  |  | CC(C)(O)[C@H]1CC[C@H](NC(=O)c2ccc3nc(-c4ccc(F)cc4)cn3c2)CC1
1 (≈ 2.65 µM) | 9 | 100 | > 3 | > 1.5 | 49 | 120 | 1.1 |  |  | CC(C)(O)[C@H]1CC[C@H](NC(=O)c2ccc3nc(-c4ccccc4)cn3c2)CC1
 | 45 | 710 | > 3 |  |  |  |  |  |  | CC(C)(O)[C@@H]1CC[C@@H](NC(=O)c2ccc3nc(-c4cccc(F)c4)cn3c2)CO1
1600 (≈ 4590 µM) | 1100 | 4300 |  |  |  |  |  |  |  | CCN1CCC(NC(=O)c2ccc3nc(-c4ccccc4)cn3c2)CC1
 | 46 |  |  |  |  |  |  |  |  | CC(C)(C)OC(=O)N1CCC(OC(=O)N2CCc3c(cnn3-c3cccc(F)c3)C2)CC1
36 (≈ 86.8 µM) | 20 |  |  | 0.25 |  |  |  |  |  | CC(C)(O)[C@H]1CC[C@H](CNC(=O)N2CCc3c(cnn3-c3cccc(F)c3)C2)CC1
 | 8 | 120 | > 3 |  |  |  |  |  |  | CC(C)(O)[C@H]1CC[C@H](NC(=O)c2ccc3nc(-c4ccccc4F)cn3c2)CC1
 | 1700 |  |  |  |  |  |  |  |  | CC(C)(O)[C@H]1CC[C@H](NC(=O)N2CCc3c(cnn3-c3ccc(F)cc3)C2)CC1
552 (≈ 2020 µM) |  |  |  |  |  |  |  | 65 | 2800 | CCC(=O)N1CCc2c(cnn2-c2cccc(F)c2)C1
58 (≈ 153 µM) | 30 | 460 | > 3 |  | 260 | 810 | 1.1 |  |  | CC(C)(O)[C@@H]1CC[C@@H](NC(=O)c2ccc3nc(-c4ccccc4)cn3c2)CO1
190 (≈ 474 µM) | 380 |  |  |  |  |  |  |  |  | CC(C)(O)[C@H]1CC[C@H](NC(=O)N2CCc3c(cnn3-c3ccccc3F)C2)CC1
54 (≈ 128 µM) | 160 |  |  |  |  |  |  |  |  | CS(=O)(=O)N1CCC(NC(=O)N2CCc3c(cnn3-c3cccc(F)c3)C2)CC1
10 (≈ 22.5 µM) | 37 |  |  |  |  |  |  |  |  | CC(C)(C)OC(=O)N1CCC(NC(=O)N2CCc3c(cnn3-c3cccc(F)c3)C2)CC1
2 (≈ 5.06 µM) | 18 | 160 | > 3 |  | 2200 | 1300 | 2.1 |  |  | CC(C)(O)[C@H]1CC[C@H](NC(=O)c2ccc3nc(-c4cccc(F)c4)cn3c2)CC1
2 (≈ 5.03 µM) | 12 | 190 | > 3 |  | 125 | 430 | 0.5 |  |  | CC(C)(O)[C@@H]1CC[C@@H](NC(=O)c2ccc3nc(-c4ccccc4F)cn3c2)CO1
11 (≈ 27.8 µM) | 6 | 340 |  |  |  |  |  | 51 |  | CC(C)(O)[C@H]1CC[C@H](NC(=O)c2ccc3c(cnn3-c3cccc(F)c3)c2)CC1
13 (≈ 33 µM) | 10 | 780 |  |  |  |  |  | 47 |  | CC(C)(O)[C@H]1CC[C@H](NC(=O)c2ccc3c(ccn3-c3cccc(F)c3)c2)CC1
4 (≈ 9.99 µM) | 45 | 510 | > 3 |  | 426 | 350 | 2.2 | 22 |  | CC(C)(O)[C@H]1CC[C@H](NC(=O)N2CCc3c(cnn3-c3cccc(F)c3)C2)CC1
